Results: PubChem BioAssay (NCI)
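Five concentrations, 48 hours, 96-well plates. GI50 marks 50% less growth. Definition used: TGI = concentration required for complete inhibition of growth.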

What was measured:
Assay in all cases: NCI anticancer screen, dose series, 48 h
[1] = tested on: NCI-H460 lung
[2] = tested on: BT-549 breast
[3] = tested on: NCI/ADR-RES ovarian
[4] = tested on: COLO 205 colon
[5] = tested on: SK-MEL-5 melanoma
[6] = tested on: PC-3 prostate
[7] = tested on: OVCAR-8 ovarian
[8] = tested on: SK-OV-3 ovarian
[9] = tested on: U251 CNS
[10] = tested on: KM12 colon
[11] = tested on: HCC-2998 colon
[12] = tested on: HOP-92 NSCLC
[13] = tested on: TK-10 renal
[14] = tested on: UO-31 renal
[15] = tested on: 786-0 renal
[16] = tested on: OVCAR-4 ovarian
[17] = tested on: A549 NSCLC
[18] = tested on: HCT-15 colon
[19] = tested on: UACC-62 melanoma
[20] = tested on: NCI-H522 lung
[21] = tested on: UACC-257 melanoma
[22] = tested on: EKVX NSCLC
[23] = tested on: CAKI-1 renal
[24] = tested on: LOX IMVI melanoma
[25] = tested on: MDA-MB-435
[26] = tested on: ACHN renal
[27] = tested on: HCT-116 colon
[28] = tested on: NCI-H23 lung
[29] = tested on: SNB-19 CNS
[30] = tested on: RPMI-8226 leukemia
[31] = tested on: A498 renal
[32] = tested on: SW-620 colon
[33] = tested on: M14 melanoma
[34] = tested on: NCI-H226 lung
[35] = tested on: MALME-3M melanoma
[36] = tested on: K-562 leukemia
[37] = tested on: T-47D breast
[38] = tested on: SF-295 CNS
[39] = tested on: CCRF-CEM leukemia
[40] = tested on: HT29 colon
[41] = tested on: HL-60(TB) leukemia
[42] = tested on: MOLT-4 leukemia
[43] = tested on: DU-145 prostate
[44] = tested on: SK-MEL-28 melanoma
[45] = tested on: MDA-MB-231 breast
[46] = tested on: SR leukemia
[47] = tested on: SN12C renal
[48] = tested on: SF-539 CNS
[49] = tested on: SNB-75 CNS
[50] = tested on: SK-MEL-2 melanoma
[51] = tested on: SF-268 CNS
[52] = tested on: MCF7 breast
[53] = tested on: HOP-62 NSCLC
[54] = tested on: HS 578T breast
[55] = tested on: IGROV1 ovarian
[56] = tested on: OVCAR-5 ovarian
[57] = tested on: OVCAR-3 ovarian

Compound: CN1CCN(c2ccc(Nc3nc(NCCCNS(=O)(=O)c4ccc(Cl)cc4)c4sccc4n3)cc2)CC1
- GI50 [1]: 8.01 µM
- TGI [1]: 22 µM
- GI50 [2]: 3.12 µM
- TGI [2]: 14.4 µM
- GI50 [3]: 19.4 µM
- TGI [3]: 58.3 µM
- GI50 [4]: 15.6 µM
- TGI [4]: 37.8 µM
- GI50 [5]: 10.2 µM
- TGI [5]: 22 µM
- GI50 [6]: 9.62 µM
- TGI [6]: 26.4 µM
- GI50 [7]: 8.57 µM
- TGI [7]: 53.8 µM
- GI50 [8]: 29 µM
- TGI [8]: 60.9 µM
- GI50 [9]: 4.06 µM
- TGI [9]: 23.2 µM
- GI50 [10]: 16.4 µM
- TGI [10]: 51.1 µM
- GI50 [11]: 7.31 µM
- TGI [11]: 20 µM
- GI50 [12]: 2.16 µM
- TGI [12]: 16.2 µM
- GI50 [13]: 19.6 µM
- TGI [13]: 35.7 µM
- GI50 [14]: 13 µM
- TGI [14]: 25.7 µM
- GI50 [15]: 2.12 µM
- TGI [15]: 6.29 µM
- GI50 [16]: 12.2 µM
- TGI [16]: 25.1 µM
- GI50 [17]: 18.7 µM
- TGI [17]: 61.7 µM
- GI50 [18]: 3.08 µM
- TGI [18]: 12.4 µM
- GI50 [19]: 3 µM
- TGI [19]: 11.1 µM
- GI50 [20]: 11.8 µM
- TGI [20]: 27 µM
- GI50 [21]: 2.39 µM
- TGI [21]: 6.44 µM
- GI50 [22]: 14.1 µM
- TGI [22]: 30 µM
- GI50 [23]: 15.5 µM
- TGI [23]: 28.8 µM
- GI50 [24]: 1.69 µM
- TGI [24]: 3.48 µM
- GI50 [25]: 9.17 µM
- TGI [25]: 21.2 µM
- GI50 [26]: 11.2 µM
- TGI [26]: 23.2 µM
- GI50 [27]: 2.3 µM
- TGI [27]: 6.99 µM
- GI50 [28]: 14.1 µM
- TGI [28]: 29.1 µM
- GI50 [29]: 10.6 µM
- TGI [29]: 22.4 µM
- GI50 [30]: 3.04 µM
- TGI [30]: 9.67 µM
- GI50 [31]: 20.4 µM
- TGI [31]: 34.8 µM
- GI50 [32]: 5.2 µM
- TGI [32]: 18.6 µM
- GI50 [33]: 2 µM
- TGI [33]: 3.94 µM
- GI50 [34]: 12 µM
- TGI [34]: 24.9 µM
- GI50 [35]: 2.12 µM
- TGI [35]: 3.91 µM
- GI50 [36]: 2.95 µM
- TGI [36]: > 100 µM
- GI50 [37]: 22.1 µM
- TGI [37]: 54.1 µM
- GI50 [38]: 12.2 µM
- TGI [38]: 27 µM
- GI50 [39]: 4.22 µM
- TGI [39]: > 100 µM
- GI50 [40]: 3.75 µM
- TGI [40]: 19.4 µM
- GI50 [41]: 2.12 µM
- TGI [41]: 5.11 µM
- GI50 [42]: 3.58 µM
- TGI [42]: 33.4 µM
- GI50 [43]: 14 µM
- TGI [43]: 28.9 µM
- GI50 [44]: 2.38 µM
- TGI [44]: 6.22 µM
- GI50 [45]: 4.94 µM
- TGI [45]: 17.3 µM
- GI50 [46]: 2.83 µM
- TGI [46]: > 100 µM
- GI50 [47]: 12.9 µM
- TGI [47]: 25.5 µM
- GI50 [48]: 1.82 µM
- TGI [48]: 3.55 µM
- GI50 [49]: 13.5 µM
- TGI [49]: 26.5 µM
- GI50 [50]: 17.2 µM
- TGI [50]: 33.1 µM
- GI50 [51]: 11.5 µM
- TGI [51]: 34.9 µM
- GI50 [52]: 6.47 µM
- TGI [52]: 21.1 µM
- GI50 [53]: 19.6 µM
- TGI [53]: 37 µM
- GI50 [54]: 13.8 µM
- TGI [54]: 44.7 µM
- GI50 [55]: 10.7 µM
- TGI [55]: 22.8 µM
- GI50 [56]: 13.3 µM
- TGI [56]: 27.4 µM
- GI50 [57]: 6.81 µM
- TGI [57]: 35.9 µM
